Experimental data published in patent US6548666B1, “Tricyclic compounds and their use in medicine process for their preparation and pharmaceutical compositions containing them” (Dr. Reddy's Research Foundation, priority 1997, dated 2003).

How the values were obtained:
hPPARγ1 = target: T1, hPPARγ1 (Homo sapiens, UniProt P37231); test: Determination of hPPARγ activity (GAL4 fusion luciferase reporter, HEK-293); format: cell-based; settings: 1 μM compound; HEK-293 cells, GAL4-hPPARγ1 LBD reporter
T1 construct: expressed in transfected cells; host or cells: HEK-293
T1 sequence (P37231 238-503 limits assumed): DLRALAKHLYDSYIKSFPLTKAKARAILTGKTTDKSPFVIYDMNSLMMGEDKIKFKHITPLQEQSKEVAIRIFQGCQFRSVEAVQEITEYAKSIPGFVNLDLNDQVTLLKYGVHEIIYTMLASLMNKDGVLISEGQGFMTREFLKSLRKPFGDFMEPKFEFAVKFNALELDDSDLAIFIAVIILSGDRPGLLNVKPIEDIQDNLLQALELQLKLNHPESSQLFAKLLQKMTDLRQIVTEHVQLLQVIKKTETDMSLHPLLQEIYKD
Protocol: (§1) Ligand binding domain of hPPARγ1 was fused to DNA binding domain of Yeast transcription factor GAL4 in eucaryotic expression vector. Using lipofectamine (Gibco BRL, USA) as transfecting reagent HEK-293 cells were transfected with this plasmid and a reporter plasmid harboring the luciferase gene driven by a GAL4 specific promoter. Compound was added at 1 μM concentration after 48 hrs of transfection and incubated overnight.

hPPARα = target: T2, hPPARα (Homo sapiens, UniProt Q07869); test: Determination of hPPARα activity (GAL4 fusion luciferase reporter, HEK-293); format: cell-based; settings: 50 μM compound; HEK-293 cells, GAL4-hPPARα LBD reporter
T2 construct: expressed in transfected cells; host or cells: HEK-293
T2 sequence (Q07869 239-466 limits assumed): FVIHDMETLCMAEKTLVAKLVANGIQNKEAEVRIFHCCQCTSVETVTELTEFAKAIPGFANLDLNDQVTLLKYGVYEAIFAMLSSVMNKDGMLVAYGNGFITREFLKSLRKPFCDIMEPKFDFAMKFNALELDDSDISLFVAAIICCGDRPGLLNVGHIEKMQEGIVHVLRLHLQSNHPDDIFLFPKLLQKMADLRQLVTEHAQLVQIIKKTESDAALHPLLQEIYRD
Protocol: as §1, with “hPPARα” for “hPPARγ1”, “superfect (Qiagen, Germany)” for “lipofectamine (Gibco BRL, USA)”, “different concentrations” for “1 μM concentration”, “42” for “48”

C57BL/KsJ-db/db mice = test: Blood sugar and triglyceride lowering in db/db mice; format: in vivo, mouse
Text: Mutation in colonies of laboratory animals and different sensitivities to dietary regimens have made the development of animal models with non-insulin dependent diabetes and hyperlipidemia associated with obesity and insulin resistance possible. Genetic models such as db/db and ob/ob (Diabetes, (1982) 31 (1): 1-6) mice and zucker fa/fa rates have been developed by the various laboratories for understanding the pathophysiology of disease and testing the efficacy of new antidiabetic compounds (Diabetes, (1983) 32: 830-838; Annu. Rep. Sankyo Res. Lab. (1994). 46: 1-57). The homozygous animals, C57 BL/KsJ-db/db mice developed by Jackson Laboratory, U.S., are obese, hyperglycemic, hyperinsulinemic and insulin resistant (J. Clin. Invest., (1990) 85: 962-967), whereas heterozygous are lean and normoglycemic. In db/db model, mouse progressively develops insulinopenia with age, a feature commonly observed in late stages of human type II diabetes when blood sugar levels are insufficiently controlled. The state of pancreas and its course vary according to the models. Since this model resembles that of type II diabetes mellitus, the compounds of the present invention were tested for blood sugar and triglycerides lowering activities.
Male C57BL/KsJ-db/db mice of 8 to 14 weeks age, having body weight range of 35 to 60 grams, bred at Dr. Reddy's Research Foundation (DRF) animal house, were used in the experiment. The mice were provided with standard feed (National Institute of Nutrition (NIN), Hyderabad, India) and acidified water, ad libitum. The animals having more than 350 mg/dl blood sugar were used for testing. The number of animals in each group was 4.
Test compounds were suspended on 0.25% carboxymethyl cellulose and administered to test group at a dose of 0.1 mg to 30 mg/kg through oral gavage daily for 6 days. The control group received vehicle (dose 10 mL/kg). On 6 th day the blood samples were collected one hour after administration of test compounds/vehicle for assessing the biological activity.
The random blood sugar and triglyceride levels were measured by collecting blood ([…]) through orbital sinus, using heparinised capillary in tubes containing EDTA which was centrifuged to obtain plasma. The plasma glucose and triglyceride levels were measured spectrometrically, by glucose oxidase and glycerol-3-PO4 oxidase/peroxidase enzyme (Dr. Reddy's Lab. Diagnostic Division Kits, Hyderabad, India) methods respectively.
The blood sugar and triglycerides lowering activities of the test compound was calculated according to the formula.
(§2) 1. Percent reduction in Blood sugar/triglycerides/total cholesterol were calculated according to the formula: [formula]

Swiss albino mice = test: Plasma triglyceride lowering activity in Swiss albino mice and Guinea pigs; format: in vivo, mouse; settings: dose 1 mg (mg/kg), oral, 6 days; table follows the Swiss albino mice / Guinea pig section
Protocol: Male Swiss albino mice (SAM) and male Guinea pigs were obtained from NIN and housed in DRF animal house. All these animals were maintained under 12 hour light and dark cycle at 25±1° C. Animals were given standard laboratory chow (NIN, Hyderabad, India) and water, ad libitum, SAM of 20-25 g body weight range and Guinea pigs of 500-700 g body weight range were used (Oliver, P., Plancke, M. O., Marzin. D., Clavey, V., Sauzieres, J and Fruchart, J. C. Effects of fenofibrate, gemfibrozil and nicotinic acid on plasma lipoprotein levels in normal and hyperlipidemic mice. Atherosclerosis. 1988. 70: 107-114).
The test compounds were administered orally to Swiss albino mice at 0.3 to 30 mg/kg/day dose for 6 days. Control mice were treated with vehicle (0.25% Carboxymethylcellulose; dose 10 mL/kg). The test compounds were administered orally to Guinea pigs at 0.3 to 30 mg/kg/day dose for 6 days. Control animals were treated with vehicle (0.25% Carboxymethylcellulose; dose 5 mL/kg).
The blood samples were collected in fed state 1 hour after drug administration on 0 and 6 day of treatment. The blood was collected from the retro-orbital sinus through heparinised capillary in EDTA containing tubes. After centrifugation, plasma sample was separation for triglyceride and total cholesterol (Wieland, O. Methods of Enzymatic analysis. Bergemeyer, H. O., Ed., 1963. 211-214; Trinder, P. Ann. Clin. Biochem. 1969. 6: 24-27). Measurement of plasma triglyceride, total cholesterol and HDL were done using commercial kits (Dr. Reddy's Diagnostic Division, Hyderabad, India).
as §2

[1] = 10 mg/kg oral gavage daily for 6 days
[2] = 3 mg/kg oral gavage daily for 6 days
[3] = 1 mg/kg oral gavage daily for 6 days

Molecule	PPARγ (fold activation, luciferase activity) (hPPARγ1)	PPARα (fold activation, luciferase activity) (hPPARα)	Reduction in Blood Glucose Level (%) (C57BL/KsJ-db/db mice; [3])	Triglyceride Lowering (%) (C57BL/KsJ-db/db mice; [3])	Triglyceride Lowering (%) (Swiss albino mice)	also measured
CCOC(Cc1ccc(OCCN2c3ccccc3Sc3ccccc32)cc1)C(=O)O (racemic) [Example 11, (±) 3-[4-[2-(Phenothiazin-10-yl)ethoxy]phenyl]-2-ethoxypropanoic acid]	5.20 Fold	6.42 Fold	–	–	–	Reduction in Blood Glucose Level (%) (C57BL/KsJ-db/db mice; [1]): 66%; Triglyceride Lowering (%) (C57BL/KsJ-db/db mice; [1]): 50%
CCOC(Cc1ccc2oc(CN3c4ccccc4Sc4ccccc43)cc2c1)C(=O)[O-].[Na+] (racemic) [Example 14, (±) 3-[2-(Phenothiazin-10-yl)methylbenzofuran-5-yl]-2-ethoxypropanoic acid, sodium salt]	–	–	–	–	–	Reduction in Blood Glucose Level (%) (C57BL/KsJ-db/db mice; [2]): 52%; Triglyceride Lowering (%) (C57BL/KsJ-db/db mice; [2]): 61%
CC(Cc1ccc(OCCN2c3ccccc3Oc3ccccc32)cc1)(Oc1ccccc1)C(=O)[O-].[Na+] (racemic) [Example 30, (±)3-[4-[2-(Phenoxazin-10-yl)ethoxy]phenyl]-2-phenoxy-2-methylpropanoic acid, sodium salt]	13.9 Fold	9.3 Fold	44%	05%	58%	–
CCOC(Cc1ccc(OCCN2c3ccccc3Oc3ccccc32)cc1)C(=O)O.N=C(N)NCCC[C@H](N)C(=O)O (single isomer, unassigned; (-)) [Example 28, (−) 3-[4-[2-(Phenoxazin-10-yl)ethoxy]phenyl]-2-ethoxypropanoic acid, arginine salt]	–	–	40%	40%	22%	–
(−) 3-[4-[2-(Phenoxazin-10-yl)ethoxy]phenyl]-2-ethoxypropanoic acid, magnesium salt [Example 25]	–	–	–	–	6%	–
